This is an account of results in ChEMBL document CHEMBL3988442, “University of Dundee, Small-Polar-MMV Screening Library” (2021).

For the test, the target named is ClpP1P2 (Mycobacterium tuberculosis (strain ATCC 25618 / H37Rv), UniProt P9WPC3+P9WPC5). The test can be described thus: in vitro assay to detect presence of AMC directly proportional to the activity of ClpP1P2. GHDDI collaboration. It is filed as functional.

For orientation: IC50 means the point on the concentration scale where inhibition reaches its midpoint. In the case of `CNCCN1C(=O)CC[C@H]2CN(c3cnc4ccccc4n3)CC[C@H]21`, the IC50 was > 100 µM.
For `O=C(c1nc(=O)[nH]c2ccccc12)N1CCCC2(CCNC2)C1` (configuration not stated) the value was > 100 µM.
To `COc1cccc(-c2cc(NCCN(C)C)nc3[nH]ccc23)n1` belongs > 100 µM; to `CCNCCOc1ccc(-c2cc(N)nc3[nH]ccc23)cc1`, > 100 µM; to `N#Cc1ccnc(NCc2cc3n(n2)CCCN(C(=O)C2CCC2)C3)c1`, > 100 µM.
For `CCCn1cc(-c2cc(-c3c[nH]cn3)c(C#N)c(N)n2)c(C)n1` the value was > 100 µM; for `O=C(c1nc(=O)[nH]c2ccccc12)N1CCCC(CC2CC2)(C(=O)O)C1` (configuration not stated), > 100 µM; for `Nc1cccc(-c2cccc3ccnn23)n1`, > 100 µM.
`Cc1ccc2nccc(C(=O)N3CCOC(CCN(C)C)C3)c2c1` (configuration not stated): the IC50 is > 100 µM.
For `CN(C)C1CCN(c2cc(-c3ccccc3)nc3ccnn23)C1` (configuration not stated) the value was > 100 µM; for `CN(C)CCC1CN(C(=O)c2cccc3c2OCC3)CCO1` (configuration not stated), > 100 µM; for `CC(O)c1cn(CC2CCN(C(=O)c3cscn3)CC2)nn1` (configuration not stated), 84.4 µM.
For `COc1ccc2c(c1)Cc1c-2nc(N)c(C#N)c1C1CCOC1` (configuration not stated), the IC50 was > 100 µM.
As to `COc1cccc(-c2cc(NCCO)nc3[nH]ccc23)n1`, the IC50 is > 100 µM.
For `Cc1ccc2[nH]c(=O)cc(C(=O)N[C@@H]3C[C@@H](CO)N(C)C3)c2c1` the value was > 100 µM; for `Cn1ccc2c(-c3nccc(N)n3)ccnc21`, > 100 µM.
Regarding `CC(C)=CCN1CCc2onc(-c3ccc(F)c(F)c3)c2C1`, the IC50 is > 100 µM.
To `Cc1cc(-c2cc(-c3cc(CC(=O)O)cs3)nc(N)c2C#N)oc1C` belongs > 100 µM; to `CCn1nc(NC(=O)Cn2ccc(C(C)=O)n2)c2ccccc21`, > 100 µM.
For `CCNc1ccnc(-c2ccnc3c2ccn3C)n1` the value was > 100 µM.
To `COCCCN1C(=O)CC[C@H]2CN(c3cnc4ccccc4n3)CC[C@H]21` belongs > 100 µM; to `N#Cc1c(N)nc2c(c1C1CCOC1)CCc1cc(O)ccc1-2` (configuration not stated), > 100 µM.
In the case of `O=C(c1cncc(NCC2COc3ccccc3C2)n1)N1CCCC1` (configuration not stated), the IC50 is > 100 µM.
Consider `COc1cc2nc(NCCNS(C)(=O)=O)cc(C)c2cc1OC`, for which the IC50 was > 100 µM.
For `CC(c1cccnc1)N(C)Cc1cc2cc3c(cc2[nH]c1=O)OCO3` (configuration not stated) the value was > 100 µM.
As for `Cc1ccc(-c2cc(-c3c(C)nn(CCO)c3C)c(C#N)c(N)n2)cc1`, the IC50 was > 100 µM.
For the compound `N#Cc1cccc(N2CCCC3(CCC(=O)N(C4CCCC4)C3)C2)n1` (configuration not stated), the half-maximal inhibitory concentration (IC50) is > 100 µM.
Consider `Cc1ccc(C#N)c(N2CCC3(CCC(=O)N(CC(N)=O)C3)CC2)n1`, for which the IC50 was > 100 µM.
For `Cc1cc2nc(-c3ccccc3)cc(NCC3CCS(=O)(=O)C3)n2n1` (configuration not stated), the IC50 was > 100 µM.
For `CCn1cc(-c2cc(-c3cc(CC(=O)O)cs3)nc(N)c2C#N)c(C)n1` the value was > 100 µM.
To `Cn1ccc2c(-c3cc(N4CCOCC4)ncn3)ccnc21` belongs > 100 µM; to `COc1ccc2[nH]c(=O)c(CN(C)CCN3CCCC3)cc2c1`, > 100 µM; to `CC(C)Cc1cc(-c2cc(-c3ccc[nH]3)nc(N)c2C#N)n[nH]1`, > 100 µM.
To `CC(C)SCCNC(=O)c1cccc2ccnn12` belongs > 100 µM.
`COc1ccc2c(c1OC)Cc1c-2nc(N)c(C#N)c1C1CCOC1` (configuration not stated): the IC50 was > 100 µM.
`COc1cccc2ccc(N3CCC(O)(C(=O)O)CC3)nc12`: the IC50 was > 100 µM.
For `N#Cc1cc2c(=O)n(CC(O)Cc3ccccc3)ccc2[nH]c1=O` (configuration not stated) the value was > 100 µM; for `Cc1nc(N2C[C@H]3CC[C@@H](C2)N3)nc2cc(S(C)(=O)=O)ccc12`, > 100 µM; for `CC(C)c1ncc(-c2cc(C3CCC3)nc(N)c2C#N)cn1`, > 100 µM.
To `O=C1CN(c2cc(-c3ccccc3F)nc3ccnn23)CCCN1` belongs > 100 µM; to `CN(C)c1nc2c(c(NCc3nnc4n3CCCCC4)n1)CCNC2`, > 100 µM.
To `Cc1ccc2cc(CN(C)Cc3ccccn3)c(=O)[nH]c2c1` belongs > 100 µM; to `c1ccc(CCCN2CCCC(Nc3cnc4ccccc4n3)C2)cc1` (configuration not stated), > 100 µM; to `CCCNCc1ccc(-c2cc(N)nc3[nH]ccc23)cc1`, > 100 µM.
In the case of `Cc1nn(C)c(C)c1-c1cc(-c2cc(CC(=O)O)cs2)nc(N)c1C#N`, the IC50 was > 100 µM.
`CCOC(=O)C1(Cc2cccc(OC)c2)CCN(Cc2ncc[nH]2)CC1`: the half-maximal inhibitory concentration (IC50) was > 100 µM.
Turning to `CC(c1ccco1)N(C)Cc1cc2cc3c(cc2[nH]c1=O)OCO3` (configuration not stated), the IC50 is > 100 µM.
As to `O=C(O)C1(O)CCN(c2ccc3cccc(Cl)c3n2)CC1`, the IC50 was > 100 µM.
To `Cc1n[nH]c(C)c1-c1cc(-c2ccc[nH]2)nc(N)c1C#N` belongs > 100 µM; to `Cc1ccnc(NCCCN2CCc3ccccc32)n1`, > 100 µM; to `CCC1(CO)CCCN(c2ncccc2C#N)C1` (configuration not stated), > 100 µM.
For the compound `O=C(c1cncc(N2CCC(O)(CO)CC2)n1)N1CCCC1`, the IC50 was > 100 µM.
For `N#Cc1c(C2CC2)cc(-c2ccc(O)cc2)nc1N`, the IC50 is > 100 µM.
Take `CCOc1ccc2[nH]c(=O)c(CN3CCC(O)CC3)cc2c1`: the IC50 is > 100 µM.
Take `N#Cc1ccnc(N2CCC(c3nccn3Cc3cscn3)CC2)c1`: the IC50 is > 100 µM.
For `Cc1cc(C)c2cc(CNCC3CCCO3)c3nn(C)c(=O)n3c2c1` (configuration not stated), the IC50 is > 100 µM.
To `CC(=O)N1CCC(c2cc(C(F)(F)F)n3ccnc3n2)CC1` belongs > 100 µM.
With `Cc1nc(C2CCCN2CC(=O)Nc2c(C)n[nH]c2C)no1` (configuration not stated), the IC50 was > 100 µM.
To `CCn1nc2c(cc1=O)CN(Cc1nc(C)c(C)o1)CC2` belongs > 100 µM; to `COCc1nc(C(=O)N2CCCC(n3nc(C)cc3C)C2)cs1` (configuration not stated), > 100 µM; to `Cc1nc(C)n(CC2CN(Cc3cccc4ccccc34)CCO2)n1` (configuration not stated), > 100 µM.
On to `CC(C)n1nc2c(cc1=O)CN(Cc1nc3ccccc3o1)CC2`, for which the half-maximal inhibitory concentration (IC50) was > 100 µM.
`CC(C(=O)N1CCCN(c2ccccc2C#N)CC1)n1cccn1` (configuration not stated): the IC50 is > 100 µM.
For `CN(Cc1ccccc1C#N)C1CCN(CCc2ccccn2)CC1` the value was > 100 µM; for `O=C(N1CCCC(n2cncn2)C1)C1(c2ccc(Cl)cc2)CCC1` (configuration not stated), > 100 µM; for `Cc1ccc(NC2CCN(C(=O)CCc3ccncc3)CC2)nn1`, > 100 µM.
For `CC(C)c1nnc2n1CCN(C(=O)Cc1csc(C(C)(C)C)n1)C2` the value was > 100 µM; for `Cc1ccc(NC2CCN(C(=O)c3ccoc3C)CC2)nn1`, > 100 µM.
For `Cn1cc(Cl)cc1C(=O)N1CCCN(Cc2ccccc2)CC1`, the IC50 is > 100 µM.
To `Cc1ccccc1-c1noc(CN2CCc3cncnc3C2)n1` belongs > 100 µM; to `Nc1nccnc1C(=O)NCCCNc1ccc(C(F)(F)F)cn1`, > 100 µM.
For `Cc1noc2ncc(C(=O)NCC3CCS(=O)(=O)C3)cc12` (configuration not stated) the value was > 100 µM; for `CCN(CC1CCOC1)C(=O)c1cnc2onc(C)c2c1` (configuration not stated), > 100 µM; for `CC(Cn1ccnc1)NC(=O)NCCc1cccs1` (configuration not stated), > 100 µM.
To `c1coc(-c2noc(CN3CCc4cncnc4C3)n2)c1` belongs > 100 µM; to `c1ncc2c(n1)CN(Cc1nc(-c3ccoc3)no1)CC2`, > 100 µM; to `COc1ccc(-c2nc(CN3CCc4cncnc4C3)no2)cc1`, > 100 µM.
As for `CN(C)C1CCN(C(=O)Cc2csc(-c3ncccn3)n2)CC1`, the IC50 is > 100 µM.
Regarding `N#Cc1cccnc1N1CCC(C2CCCCCN2C(=O)C2CC2)CC1` (configuration not stated), the IC50 was > 100 µM.
Consider `CC(=O)N1CCCCCC1C1CCN(c2ncccc2C#N)CC1` (configuration not stated), for which the IC50 is > 100 µM.
For the compound `O=C(CCc1ccc(-c2ccccc2)[nH]1)N1CCCC(n2ccnc2)C1` (configuration not stated), the IC50 is > 100 µM.
On to `N#Cc1cccnc1N1CCC(C2CCCCCN2C(N)=O)CC1` (configuration not stated), for which the IC50 was > 100 µM.
Turning to `CN(Cc1ccsc1)C(=O)Nc1ccc(N2CCCC2)nc1`, the IC50 is > 100 µM.
For the compound `CN(Cc1ccsc1)C(=O)Nc1ccc(N(C)C)nc1`, the IC50 is > 100 µM.
With `Cc1cc(C)n(CC2CN(c3cnc4ccccc4n3)CCO2)n1` (configuration not stated), the IC50 was > 100 µM.
As for `c1ccc2nc(N3CCOC(Cn4cccn4)C3)cnc2c1` (configuration not stated), the IC50 was > 100 µM.
Regarding `c1ccc2nc(N3CCOC(Cn4cncn4)C3)cnc2c1` (configuration not stated), the IC50 was > 100 µM.
Regarding `N#Cc1ccccc1N1CCCN(C(=O)CCc2ccsc2)CC1`, the IC50 was > 100 µM.
For `COc1c(C2CCCN2Cc2noc(C)n2)c(C)nn1C` (configuration not stated), the IC50 was > 100 µM.
To `Cc1ccccc1OCCN1CCn2c(C)nnc2C1` belongs > 100 µM.
Take `CCc1n[nH]c(C2CN(CCCS(C)(=O)=O)CCO2)n1` (configuration not stated): the 50% inhibitory concentration (IC50) was > 100 µM.
Regarding `CCOc1cc(/C=C/c2ncc(C(=O)O)s2)cc(Br)c1OC`, the IC50 was > 100 µM.
Regarding `COc1ncccc1CNC(=O)c1cc(C)on1`, the IC50 is > 100 µM.
As for `CC(Cn1cccn1)NC(=O)N1CCN(Cc2ccsc2)CC1` (configuration not stated), the IC50 was > 100 µM.
Consider `c1ccc(-n2cc(CN3CCCC3Cn3cccn3)nn2)cc1` (configuration not stated), for which the IC50 was > 100 µM.
To `CCc1nc(C2CCCN2C(=O)CCCn2cncn2)no1` (configuration not stated) belongs > 100 µM; to `COc1ccc(-c2nnc(CNCCn3cc(C)cn3)o2)cc1`, > 100 µM.
For `CC(C)c1nc(CN(C)C2CCN(CCc3ccncc3)C2)no1` (configuration not stated) the value was > 100 µM; for `CN(Cc1nnc(-c2ccco2)o1)C1CCCN(c2cccnn2)C1` (configuration not stated), > 100 µM; for `c1cnnc(N2CCCC(NCc3nnc(-c4ccco4)o3)C2)c1` (configuration not stated), > 100 µM.
With `Cc1ccc(S(=O)(=O)N2CCOc3ccccc32)cc1C(N)=O`, the IC50 was > 100 µM.
With `Cn1cnc2c1CCN(Cc1csc(-c3ccsc3)n1)C2`, the IC50 was > 100 µM.
To `Cc1noc(C2CCN(C(=O)CCc3nccs3)CC2)n1` belongs > 100 µM; to `CCN(CC1CCOC1)C(=O)Nc1ccc(OC)nc1` (configuration not stated), > 100 µM.
Turning to `COc1cccc(-n2nnc(C(=O)N3CCN(C)CC3C)c2C)c1` (configuration not stated), the IC50 is > 100 µM.
To `CCOc1ccc(Cl)c(C(=O)N(C)C)n1` belongs > 100 µM.
For `CN(C)CC1CN(c2cnc3ccccc3n2)CCO1` (configuration not stated) the value was > 100 µM.
